Test results published in patent publication US11339419B2, “Scavenger protein(s) for improved preservation of analyte detection sensor(s) and method(s) of use thereof” (Siemens Healthcare Diagnostics Inc., priority 2017, dated 2022).
Where “and” joins values, the source holds several entries; their conditions need not be identical. Equal values may be shown once.

Experiments:
Format in all cases: biochemical
[1] = system: sarcosine oxidase (BBI Solutions); test: BBI Solutions Sarcosine Oxidase Enzyme Absorbance with BSA and Proclin 300
Description: (§1) Absorbance measurements of the sarcosine oxidase enzyme(s) were taken via spectrophotometer for each aqueous solution (represented as columns 1-5 in Tables 1-4—column 6 is a blank), the absorbance being directly proportional to the enzyme activity being measured-which for Tables 1-4 is sarcosine oxidase enzyme activity. Accordingly, the higher the absorbance measurement, the higher the enzyme activity of sarcosine oxidase. […] In addition, the mean values, standard deviations, and coefficients of variation are also presented for the enzyme activity/absorbance of each aqueous solution. All measurements were taken at 37° C.

[2] = system: sarcosine oxidase (Toyobo); test: Toyobo Sarcosine Oxidase Enzyme Absorbance with BSA and Proclin 300
Description: as §1

creatininase (Toyobo) = test: Toyobo Creatininase Enzyme Absorbance with BSA and MIT; conditions: Day 0
Description: Absorbance measurements of the creatininase enzyme(s) were taken via spectrophotometer for each aqueous solution (represented as columns 1-5 in Tables 5-8—column 6 is a blank), the absorbance being directly proportional to the enzyme activity being measured-which for Tables 5-8 is creatininase enzyme activity. Accordingly, the higher the absorbance measurement, the higher the enzyme activity of creatininase. Columns 7-11 represent five replicate readings in which the solution only contains BSA (i.e., there is no biocide(s) present in the solution). In addition, the mean values, standard deviations, and coefficients of variation are all presented for the enzyme activity/absorbance of each aqueous solution. All measurements were taken at 37° C.
As depicted in Table 6, creatininase (commercially offered for sale by Toyobo) enzyme activity is measured against various concentrations of MIT (biocide) and BSA (scavenger protein) over a period of 14 days (with absorbance measurement taken at 0, 4, and 14 days) for five different aqueous solutions (represented as columns 1-5—column 6 is a blank).

[3] = Day 0, BSA 5 mg/mL only, no Proclin 300, line of 0.7% Proclin 300
[4] = Day 0, BSA 5 mg/mL only, no Proclin 300, line of 1.4% Proclin 300
[5] = Day 0, BSA 25 mg/mL only, no Proclin 300, line of 0.7% Proclin 300
[6] = Day 0, BSA 25 mg/mL only, no Proclin 300, line of 1.4% Proclin 300
[7] = Day 0, BSA 50 mg/mL only, no Proclin 300, line of 0.7% Proclin 300
[8] = Day 0, BSA 50 mg/mL only, no Proclin 300, line of 1.4% Proclin 300
[9] = Day 4, BSA 5 mg/mL only, no Proclin 300, line of 0.7% Proclin 300
[10] = Day 4, BSA 5 mg/mL only, no Proclin 300, line of 1.4% Proclin 300
[11] = Day 4, BSA 25 mg/mL only, no Proclin 300, line of 0.7% Proclin 300
[12] = Day 4, BSA 25 mg/mL only, no Proclin 300, line of 1.4% Proclin 300
[13] = Day 4, BSA 50 mg/mL only, no Proclin 300, line of 0.7% Proclin 300
[14] = Day 4, BSA 50 mg/mL only, no Proclin 300, line of 1.4% Proclin 300
[15] = Day 14, BSA 5 mg/mL only, no Proclin 300, line of 0.7% Proclin 300
[16] = Day 14, BSA 5 mg/mL only, no Proclin 300, line of 1.4% Proclin 300
[17] = Day 14, BSA 25 mg/mL only, no Proclin 300, line of 0.7% Proclin 300
[18] = Day 14, BSA 25 mg/mL only, no Proclin 300, line of 1.4% Proclin 300
[19] = Day 14, BSA 50 mg/mL only, no Proclin 300, line of 0.7% Proclin 300
[20] = Day 14, BSA 50 mg/mL only, no Proclin 300, line of 1.4% Proclin 300
[21] = days 4 and 14, 5, 25 and 50 mg/mL BSA, with Proclin 300
[22] = days 4 and 14, only BSA, no Proclin 300
[23] = 5 mg/mL BSA, no MIT (row of 50 ppm MIT)
[24] = 5 mg/mL BSA, no MIT (row of 100 ppm MIT)
[25] = 25 mg/mL BSA, no MIT (row of 50 ppm MIT)
[26] = 25 mg/mL BSA, no MIT (row of 100 ppm MIT)

- Absorbance, solutions 7-11 [1, 3]: 1.447 and 1.677 and 1.453 and 1.748
- MEAN absorbance, solutions 7-11 [1, 3]: 1.51
- MEAN absorbance, solutions 7-11 [1, 4]: 1.40
- MEAN absorbance, solutions 7-11 [1, 5]: 1.37
- MEAN absorbance, solutions 7-11 [1, 6]: 1.34
- MEAN absorbance, solutions 7-11 [1, 7]: 1.35
- MEAN absorbance, solutions 7-11 [1, 8]: 1.35
- MEAN absorbance, solutions 7-11 [1, 9]: 1.45
- MEAN absorbance, solutions 7-11 [1, 10]: 1.42
- MEAN absorbance, solutions 7-11 [1, 11]: 1.40
- MEAN absorbance, solutions 7-11 [1, 12]: 1.38
- MEAN absorbance, solutions 7-11 [1, 13]: 1.38
- Absorbance, solutions 7-11 [1, 14]: 1.38 and 1.397 and 1.399 and 1.403
- MEAN absorbance, solutions 7-11 [1, 14]: 1.35
- MEAN absorbance, solutions 7-11 [1, 15]: 1.49
- Absorbance, solutions 7-11 [1, 16]: 1.527 and 1.53 and 1.526 and 1.566
- MEAN absorbance, solutions 7-11 [1, 16]: 1.49
- MEAN absorbance, solutions 7-11 [1, 17]: 1.47
- MEAN absorbance, solutions 7-11 [1, 18]: 1.47
- MEAN absorbance, solutions 7-11 [1, 19]: 1.46
- MEAN absorbance, solutions 7-11 [1, 20]: 1.46
- absorbance of the sarcosine oxidase enzyme compared to samples containing 0 mg/mL of BSA [1, 21]: increased absorbance
- sarcosine oxidase absorbance, solutions 7-11 [1, 22]: increased (or at least maintained)
- Absorbance, solutions 7-11 [2, 3]: 1.419
- MEAN absorbance, solutions 7-11 [2, 3]: 1.39
- Absorbance, solutions 7-11 [2, 4]: 1.397 and 1.427 and 1.404
- MEAN absorbance, solutions 7-11 [2, 4]: 1.35
- Absorbance, solutions 7-11 [2, 5]: 1.443
- MEAN absorbance, solutions 7-11 [2, 5]: 1.40
- Absorbance, solutions 7-11 [2, 6]: 1.403 and 1.426 and 1.429 and 1.44
- MEAN absorbance, solutions 7-11 [2, 6]: 1.37
- Absorbance, solutions 7-11 [2, 7]: 1.418
- MEAN absorbance, solutions 7-11 [2, 7]: 1.39
- Absorbance, solutions 7-11 [2, 8]: 1.409 and 1.41 and 1.444
- MEAN absorbance, solutions 7-11 [2, 8]: 1.37
- MEAN absorbance, solutions 7-11 [2, 9]: 0.81
- MEAN absorbance, solutions 7-11 [2, 10]: 0.86
- MEAN absorbance, solutions 7-11 [2, 11]: 1.30
- MEAN absorbance, solutions 7-11 [2, 12]: 1.32
- MEAN absorbance, solutions 7-11 [2, 13]: 1.31
- MEAN absorbance, solutions 7-11 [2, 14]: 1.32
- MEAN absorbance, solutions 7-11 [2, 15]: 0.25
- MEAN absorbance, solutions 7-11 [2, 16]: 0.29
- MEAN absorbance, solutions 7-11 [2, 17]: 1.34
- MEAN absorbance, solutions 7-11 [2, 18]: 1.34
- MEAN absorbance, solutions 7-11 [2, 20]: 1.39
- absorbance of the sarcosine oxidase enzyme compared to samples containing 0 mg/mL of BSA [2, 21]: increased absorbance
- sarcosine oxidase absorbance, solutions 7-11 [2, 22]: increased (or at least maintained)
- Creatininase Enzyme Absorbance, columns 7-11 (creatininase (Toyobo); [23]): 0.791 and 0.78
- MEAN (columns 7-11) (creatininase (Toyobo); [23]): 0.59
- Creatininase Enzyme Absorbance, columns 7-11 (creatininase (Toyobo); [24]): 0.806 and 0.802 and 0.845
- MEAN (columns 7-11) (creatininase (Toyobo); [24]): 0.61
- Creatininase Enzyme Absorbance, columns 7-11 (creatininase (Toyobo); [25]): 0.767
- MEAN (columns 7-11) (creatininase (Toyobo); [25]): 0.58
- Creatininase Enzyme Absorbance, columns 7-11 (creatininase (Toyobo); [26]): 0.751 and 0.768 and 0.799 and 0.806
- MEAN (columns 7-11) (creatininase (Toyobo); [26]): 0.57
- Creatininase Enzyme Absorbance, columns 7-11 (creatininase (Toyobo); 50 mg/mL BSA, no MIT (row of 50 ppm MIT)): 0.845
Substance: bovine serum albumin [BSA]
- Absorbance, solutions 7-11 [1, 4]: 1.464 and 1.437 and 1.453 and 1.458 and 1.444
- Absorbance, solutions 7-11 [1, 5]: 1.429 and 1.441 and 1.415 and 1.398 and 1.406
- Absorbance, solutions 7-11 [1, 6]: 1.39 and 1.396 and 1.375 and 1.392 and 1.376
- Absorbance, solutions 7-11 [1, 7]: 1.376 and 1.375 and 1.399 and 1.416 and 1.421
- Absorbance, solutions 7-11 [1, 8]: 1.402 and 1.394 and 1.401 and 1.397 and 1.396
- Absorbance, solutions 7-11 [1, 9]: 1.505 and 1.507 and 1.518 and 1.472 and 1.484
- Absorbance, solutions 7-11 [1, 10]: 1.446 and 1.471 and 1.449 and 1.46 and 1.484
- Absorbance, solutions 7-11 [1, 11]: 1.45 and 1.451 and 1.465 and 1.418 and 1.415
- Absorbance, solutions 7-11 [1, 12]: 1.416 and 1.421 and 1.436 and 1.431 and 1.426
- Absorbance, solutions 7-11 [1, 13]: 1.416 and 1.425 and 1.435 and 1.402 and 1.421
- Absorbance, solutions 7-11 [1, 15]: 1.53 and 1.542 and 1.526 and 1.538 and 1.535
- Absorbance, solutions 7-11 [1, 17]: 1.498 and 1.527 and 1.533 and 1.503 and 1.505
- Absorbance, solutions 7-11 [1, 18]: 1.499 and 1.497 and 1.533 and 1.539 and 1.525
- Absorbance, solutions 7-11 [1, 19]: 1.493 and 1.499 and 1.505 and 1.513 and 1.541
- Absorbance, solutions 7-11 [1, 20]: 1.467 and 1.491 and 1.482 and 1.534 and 1.529
